Our source for the GI50 and TGI values is PubChem BioAssay (NCI).

Among the test systems are A498 renal; CAKI-1 renal; COLO 205 colon; K-562 leukemia; MALME-3M melanoma; MDA-MB-435; SF-268 CNS; SF-295 CNS; SR leukemia; UACC-257 melanoma.
What all share (test): DTP human tumour cell line panel, 48 h

SMILES strings stand for the structures.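 Method: 48-hour compound exposure of cells in 96-well plates, five concentrations, linear interpolation of endpoints. At the GI50, growth is halved. At the TGI there is no net growth.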 *1 amine or outer side, *2 acyl side, *3 side chain or, on linkers, in order; H or OH if unused. Where a SMILES comes first, the peptide text is derived from it. [ ]: non-standard residue; d: D form. ξ: configuration not given here. X21 = CC[C@@H](C)C(N[*:1])C(=O)[*:2]; ξR = N=C(N)NCCCC(N)C(=O)O; ξI = CCC(C)C(N)C(=O)O; ξL = CC(C)CC(N)C(=O)O; ξK = NCCCCC(N)C(=O)O; ξV = CC(C)C(N)C(=O)O; ξA = CC(N)C(=O)O

Take `CCCN(CCSSCCNc1nc(N(C)O)nc(N(C)O)n1)c1nc(N(C)O)nc(N(C)O)n1`: the GI50 was 19.5 µM with A498 renal; 2.47 µM in the assay on CAKI-1 renal; 2.9 µM in the assay with COLO 205 colon; 15.7 µM in the assay with K-562 leukemia; 6.29 µM in the assay with MALME-3M melanoma; 4.91 µM in the assay with MDA-MB-435. Besides, the GI50 is 6.37 µM with SF-268 CNS, 3.56 µM with SF-295 CNS, 2.71 µM in the assay on SR leukemia and 22.7 µM in the assay with UACC-257 melanoma. Also, the TGI in the assay with A498 renal, in the assay on CAKI-1 renal, in the assay on COLO 205 colon, in the assay with K-562 leukemia, in the assay with MALME-3M melanoma and in the assay with MDA-MB-435 was greater than 100 µM each time. The TGI in the assay on SF-268 CNS is greater than 100 µM; in the assay on SF-295 CNS, 58.3 µM; in the assay on SR leukemia, greater than 100 µM; with UACC-257 melanoma it was greater than 100 µM.

As for `COc1ccc2c(c1)/C(=N/OC(C)=O)c1c-2c(=O)[nH]c2ccccc12`, the GI50 in the assay on A498 renal is 7.45 µM; in the assay with CAKI-1 renal, 11.5 µM; with COLO 205 colon, 12.2 µM; with K-562 leukemia, 11.3 µM; with MALME-3M melanoma, 13.2 µM; in the assay with MDA-MB-435 it was 17.3 µM. For the same molecule, the GI50 was 25.1 µM in the assay with SF-268 CNS, 18.1 µM in the assay with SF-295 CNS, 6.63 µM in the assay on SR leukemia and 17.3 µM in the assay on UACC-257 melanoma. Besides, the TGI in the assay on A498 renal came out at 32.4 µM; in the assay on CAKI-1 renal, 25.6 µM; in the assay with COLO 205 colon it was 31.7 µM; in the assay on K-562 leukemia, 28.7 µM; with MALME-3M melanoma it was 29.8 µM; with MDA-MB-435 it was 34.5 µM. Also, the TGI is greater than 100 µM with SF-268 CNS, 48 µM with SF-295 CNS, 33.1 µM with SR leukemia and 34.2 µM in the assay on UACC-257 melanoma.

Turning to `N#C/C(=C\c1ccc(Br)cc1)n1nnc2ccccc21`, the GI50 in the assay with A498 renal is 1.71 µM; in the assay with CAKI-1 renal, 0.345 µM; in the assay with COLO 205 colon it was 0.591 µM; with K-562 leukemia, 0.235 µM; in the assay with MALME-3M melanoma it was 0.727 µM; with MDA-MB-435, 0.191 µM. Moreover, the GI50 with SF-268 CNS is 2.62 µM; in the assay with SF-295 CNS it was 1.18 µM; in the assay with SR leukemia, 0.144 µM; in the assay on UACC-257 melanoma, 1.19 µM. Moreover, the TGI in the assay with A498 renal is 4.37 µM; in the assay with CAKI-1 renal, 2 µM; in the assay on COLO 205 colon, 3.22 µM; in the assay on K-562 leukemia, greater than 19.7 µM; in the assay on MALME-3M melanoma it was 2.78 µM; with MDA-MB-435, 0.438 µM. For the same molecule, the TGI in the assay on SF-268 CNS was 9.24 µM; with SF-295 CNS it was 8.9 µM; with SR leukemia, 14.6 µM; in the assay on UACC-257 melanoma, 4.26 µM.

For the molecule `CN1CCN(c2ccc(C(=O)Nc3cc(-c4cccc(NS(=O)(=O)c5ccccc5)c4)[nH]n3)cc2)CC1`, the GI50 in the assay with A498 renal was 0.505 µM; in the assay on CAKI-1 renal, 17.4 µM; in the assay with COLO 205 colon, 4.28 µM; with K-562 leukemia, 2.89 µM; in the assay on MALME-3M melanoma, 9.87 µM; in the assay with MDA-MB-435 it was 6.84 µM. Moreover, the GI50 with SF-268 CNS was 5.51 µM; with SF-295 CNS, 3.69 µM; with SR leukemia, 2 µM; in the assay on UACC-257 melanoma it was 11.2 µM. For the same molecule, the TGI turned out to be 9.75 µM in the assay with A498 renal; 51.8 µM in the assay with CAKI-1 renal; 14.1 µM with COLO 205 colon; 19.4 µM in the assay with K-562 leukemia; 26.7 µM in the assay on MALME-3M melanoma; 22.3 µM in the assay on MDA-MB-435. For the same molecule, the TGI in the assay on SF-268 CNS came to 25.7 µM; with SF-295 CNS it was 20.9 µM; with SR leukemia, 5.33 µM; in the assay with UACC-257 melanoma, 27 µM.

Consider `COc1cc(OC)c(C(=O)/C=C/c2cccc(OC(C)=O)c2)cc1CC=C(C)C`, for which the GI50 is 16.9 µM with A498 renal; 23.2 µM in the assay with CAKI-1 renal; 6.96 µM in the assay with COLO 205 colon; 8.56 µM in the assay with K-562 leukemia; 10.6 µM with MALME-3M melanoma; 5.67 µM with MDA-MB-435. The GI50 was 7.26 µM in the assay on SF-268 CNS, 11.9 µM with SF-295 CNS, 1.74 µM in the assay on SR leukemia and 10.4 µM with UACC-257 melanoma. The TGI in the assay on A498 renal is greater than 50 µM; with CAKI-1 renal, greater than 50 µM; in the assay on COLO 205 colon, 14.2 µM; in the assay on K-562 leukemia, greater than 50 µM; in the assay with MALME-3M melanoma, 33.3 µM; in the assay with MDA-MB-435 it was 31.1 µM. In addition, the TGI with SF-268 CNS is 22.7 µM; in the assay with SF-295 CNS it was greater than 50 µM; with SR leukemia, 16.1 µM; with UACC-257 melanoma, 36.8 µM.

As to `CCC(C)C1NC(=O)C(CC(C)C)NC(=O)C(C)NC(=O)C(C(C)C)NC(=O)C(CCCCN)NC(=O)C(CC(C)C)NC(=O)C(C(C)C)NC(=O)[C@H](C)NC(=O)C(C(C)CC)NC(=O)C(CCCN=C(N)N)NC(=O)C(CCCCN)NC(=O)C(CCCN=C(N)N)NC(=O)C(CCCCN)NC(=O)C([C@H](C)CC)NC(=O)C(CCCCN)NC1=O` (stereo not given in full) (cyclo(A[ξV][ξL][ξK][ξV][ξA][ξL][ξI][ξK][X21][ξK][ξR][ξK][ξR][ξI])), the GI50 with A498 renal was 1.15 µM; in the assay with CAKI-1 renal it was 1.38 µM; with COLO 205 colon it was 1.49 µM; in the assay with K-562 leukemia it was 0.783 µM; with MALME-3M melanoma, 1.12 µM; with MDA-MB-435, 1.51 µM. Also, the GI50 in the assay on SF-268 CNS was 1.76 µM; in the assay with SF-295 CNS it was 1.04 µM; with SR leukemia, 1.48 µM; with UACC-257 melanoma, 0.476 µM. The concentration for total growth inhibition (TGI) in the assay on A498 renal stood at 2.82 µM; with CAKI-1 renal, 3.04 µM; in the assay on COLO 205 colon, 3.85 µM; in the assay on K-562 leukemia it was 3.79 µM; in the assay with MALME-3M melanoma, 2.58 µM; with MDA-MB-435 it was 3.33 µM. Besides, the TGI came out at 5.12 µM in the assay with SF-268 CNS, 2.52 µM in the assay on SF-295 CNS, 4.1 µM in the assay on SR leukemia and 2.58 µM with UACC-257 melanoma.

Take `Cc1cc(=O)oc2cc(OS(C)(=O)=O)ccc12`: the TGI with A498 renal, in the assay on CAKI-1 renal, with COLO 205 colon, with K-562 leukemia, in the assay on MALME-3M melanoma and with MDA-MB-435 was greater than 100 µM each time. Further, the TGI in the assay on SF-268 CNS, with SF-295 CNS, with SR leukemia and in the assay with UACC-257 melanoma was greater than 100 µM throughout.

By GI50 is commonly meant the concentration that inhibits growth by half. By TGI is commonly meant the concentration giving total growth inhibition.
